# Measured values taken from patent publication US20130065959A1, “SANITIZING MEAT WITH PERACID AND 2-HYDROXY ORGANIC ACID COMPOSITIONS” (Fresh Express Incorporated, priority 2009, published 2013).
# What was measured:
# [1] = tested on: E. coli K-12 (ATCC 25253); assay: Attached cells on vegetable and fruit surface (Example 7); assay type: cell-based; conditions: 45 sec
# Description: (§1) Inoculum preparation: ATCC freeze dried culture was rehydrated in 10 mL of sterilized tryptic soy broth and mixed homogeneously. 0.1 mL of the stock solution was transferred to 10 mL of TSB and incubated at 37C for 24 h. Enrichment was streaked to confirm purity. 2 mL of the enriched stock was transferred to 200 mL of TSB and incubated at 37C for 24 h and 36 h, respectively for E. coli K-12 (ATCC 25253) (EC) and Listeria innocua (ATCC 33090) (LI) resulting in ˜10^8 cfu/mL stationary phase culture stock. The stock was cooled for at 4C for 1 h. Microbial population of the stationary phase stock culture was enumerated by means of serial dilution with 9-mL Butterfield phosphate buffer tubes and spread plating on Tryptic Soy Agar (TSA) pre-poured agar plates for EC or Modified Oxford Agar (MOX) pre-poured agar plates for LI.
# (§2) Vegetable and fruit surface inoculation: The 200 mL˜10^8 cfu/mL stock culture solution was homogeneously mixed by shaking and swirling the Erlenmeyer flask. The 200 mL culture was separated into 4 centrifuge tubes (50 mL each) and centrifuged at 10,000 rpm and 4C for 15 min. The stock culture pellet was re-suspended with 5 mL of 5% Horse Serum. All the re-suspended cultures from the four centrifuge tubes were combined to form 20 mL˜10^9 cfu/mL inoculating stock culture. The outer peel or surface of the test vegetable and fruit was cut into 5cm×2.5 cm pieces or diced into […] cubes in the case of tomatoes for inoculation. 50 uL inoculum in the form of 2 uL droplets were spiked onto the strawberry, and diced tomato surface while 100 uL in the form of 2 uL droplets were inoculated onto the potato peel. The spiked surfaces or peels were placed in a biological safety cabinet for 60 min at 18 to 24C for drying.
# (§3) Treatment of inoculated vegetable and fruit surfaces: Each sample of inoculated vegetable or fruit surface was placed into a 2.5L stomacher bag containing 500 mL of the tested solution and shook vigorously for 45 s. The tested solutions included city water, lactic acid solution (LA), peracetic acid solution (PA), and FreshRinse solution (FR). The treated vegetable or fruit surface was immediately transferred into a sterile stomacher bag containing 100 mL of Butterfield phosphate buffer with 1 sodium thiosulfate pellet at the end of the 45 s treatment. Each solution treatment was performed in duplications. The reduction for each solution treatment was compared to that of the city water treatment.
# [2] = tested on: Listeria innocua (ATCC 33090); assay: as above; assay type: cell-based; conditions: Whole Strawberry, 45 sec
# Description: as §1, §2, §3
# [3] = cited from earlier work
# [4] = tested on: Lactobacillus plantarum 14917; assay: Suspended Cells Challenge Test, 20 s residence time, no surfactant (Example 2); assay type: cell-based
# Description: (§4) Synergism with respect to efficacy in a Suspended Cells Challenge Test at 20 s residence time with no surfactant.
# (§5) The experimental treatment groups were tap water, chlorinated water, a FE sanitizer wash water (FE, FE sanitizer, a solution of peroxyacetic acid and lactic acid, as further specified in a given experiment).
# (§6) The experimental protocol was as follows: • 1. Transfer 1.00 mL of a ˜10^8 cfu/g Lactobacillus plantarum (ATCC 14917) stock culture into a test tube containing 9.00 mL of treatment test solution • 2. Vortex the mixture for 15 s • 3. Stop the reaction by transferring 1 mL of the treated samples to 9 mL of Butterfield Phosphate Buffer • 4. Enumerate viable residual cells through serial dilutions and spread plating with 1-mL transfers • 5. […] Repeat Steps 1 to 5 two more times • 7. Repeat Steps 1 to 6 with flume water • 8. Repeat Steps 1 to 6 with chlorinated water • 9. Repeat Steps 1 to 8 with various levels of FE • 10. Repeat Steps 1 to 8 with various levels of lactic acid • 11. Repeat Steps 1 to 8 with various levels of peroxyacetic acid • 12. Repeat Steps 1 to 11 with Listeria innocua (ATCC33090)
# (§7) • 1. Log […] is a measure of the percent of microorganisms that are inactivated during the disinfection process and is defined as Log Inactivation=Log10 (No/NT) where No is the initial influent concentration of viable microorganisms; NT is the concentration of surviving microorganisms. As M cfu/g=microbial population of stock culture; W cfu/g=microbial population in solution of “Water Treatment” and X cfu/g=microbial population in solution of “X Treatment,” the Log reduction caused by “Treatment X”=Log (w/x)
# [5] = tested on: Listeria innocua ATCC 33090; assay: as above; assay type: cell-based
# Description: as §4, §5, §6, §7
# [6] = tested on: E. coli K12; assay: Attached cells challenge test on produce leaves (Example 1); assay type: cell-based
# [7] = Peroxyacetic acid 70 ppm, Lactic Acid 0 ppm
# [8] = Peroxyacetic acid 75 ppm, Lactic Acid 0 ppm
# [9] = Peroxyacetic acid 80 ppm, Lactic Acid 0 ppm
# [10] = Peroxyacetic acid 0 ppm, Lactic Acid 2000 ppm
# [11] = Peroxyacetic acid 0 ppm, Lactic Acid 2500 ppm
# [12] = Peroxyacetic acid 0 ppm, Lactic Acid 3000 ppm
smiles,measurement,setting,value
"CC(=O)OO [Peroxyacetic acid, peroxyacetic acid]",Log reductions,"[1]; Diced Tomato, PA 60 ppm, LA 0 ppm",0.6
same,Log reductions,"[1]; Diced Tomato, PA 80 ppm, LA 0 ppm",0.7
same,Log reductions,"[1]; Potato peel, PA 60 ppm, LA 0 ppm",1.0
same,Log reductions,"[1]; Potato peel, PA 80 ppm, LA 0 ppm",1.2
same,Log reductions,"[2]; PA 50 ppm, LA 0 ppm",1.1
same,Oxidation Capacity,[3],1.81 eV
same,log reduction of suspended cells,[4]; [7],4.52 log10
same,log reduction of suspended cells,[4]; [8],5.59 log10
same,log reduction of suspended cells,[4]; [9],5.59 log10
same,log reduction of suspended cells,[5]; [7],1.40 log10
same,log reduction of suspended cells,[5]; [8],1.70 log10
same,log reduction of suspended cells,[5]; [9],1.80 log10
same,"Log reduction, attached cells","[6]; Romaine, PAA 60 ppm, LA 0.0%",0.26
same,"Log reduction, attached cells","[6]; Romaine, PAA 70 ppm, LA 0.0%",0.53
same,"Log reduction, attached cells","[6]; Romaine, PAA 80 ppm, LA 0.0%",1.18
same,"Log reduction, attached cells","[6]; Spinach, PAA 60 ppm, LA 0.0%",0.69
same,"Log reduction, attached cells","[6]; Spinach, PAA 70 ppm, LA 0.0%",1.33
same,"Log reduction, attached cells","[6]; Spinach, PAA 80 ppm, LA 0.0%",2.46
"CC(O)C(=O)O (stereo not drawn) [Lactic Acid, lactic acid]",Log reductions,"[1]; Diced Tomato, PA 0 ppm, LA 1,500 ppm",0.1
same,Log reductions,"[1]; Diced Tomato, PA 0 ppm, LA 3,000 ppm",0.0
same,Log reductions,"[1]; Potato peel, PA 0 ppm, LA 1,500 ppm",0.1
same,Log reductions,"[1]; Potato peel, PA 0 ppm, LA 3,000 ppm",0.0
same,Log reductions,"[2]; PA 0 ppm, LA 1,500 ppm",0.0
same,Log reductions,"[2]; PA 0 ppm, LA 3,000 ppm",0.5
same,log reduction of suspended cells,[4]; [10],0.00 log10
same,log reduction of suspended cells,[4]; [11],0.02 log10
same,log reduction of suspended cells,[4]; [12],0.01 log10
same,log reduction of suspended cells,[5]; [10],0.08 log10
same,log reduction of suspended cells,[5]; [11],0.19 log10
same,log reduction of suspended cells,[5]; [12],0.05 log10
same,"Log reduction, attached cells","[6]; Romaine, PAA 0 ppm, LA 0.6%",0.24
same,"Log reduction, attached cells","[6]; Romaine, PAA 0 ppm, LA 0.9%",0.37
same,"Log reduction, attached cells","[6]; Romaine, PAA 0 ppm, LA 1.2%",1.28
same,"Log reduction, attached cells","[6]; Spinach, PAA 0 ppm, LA 0.6%",0.09
same,"Log reduction, attached cells","[6]; Spinach, PAA 0 ppm, LA 0.9%",0.42
same,"Log reduction, attached cells","[6]; Spinach, PAA 0 ppm, LA 1.2%",0.81
